Patent US5795885A, “Method of inhibiting profileration of cells by administering an aminosterol compound” (priority 1995, dated 1998)

Legend:
[1] = system: VX2 carcinoma implanted into the rabbit cornea; assay: tumor-induced (VX2 carcinoma) corneal neovascularization in rabbits; format: in vivo; conditions: ELVAX 40 P pellet
From the text: The implantation of VX2 carcinoma into the rabbit cornea results in the induction of new blood vessels within several days (Tamargo et al., Cancer Research 51, 1991, 672-675). It is believed that this carcinoma secretes growth factors that stimulate new blood-vessel growth. Thus, this model is indicative in vivo evidence of therapeutic utility in the treatment of pathological disorders of vascularization, including the metastatic spread of tumors, diabetic retinopathy, macular degeneration, and rheumatoid arthritis.
This experiment followed the published protocol--tumor was implanted adjacent to a polymer containing a concentration of the agent to be evaluated. The polymer releases the agent slowly in the immediate neighborhood of the tumor, providing sustained high local concentrations of the agent. In this experiment, squalamine introduced into a pellet of ELVAX 40 P (DuPont, Wilmington, Del.) inhibited new blood vessel formation by about 60% at days 7 and 14, and by about 25% at day 21.

[2] = system: human NHE1; assay: internal pH recovery, PS120 fibroblasts transfected with human NHE1 (BCECF-AM); format: cell-based; conditions: 5 μg/ml; acid-preloaded by 40 mM NH4Cl
Experimental: PS120 fibroblasts transfected with rabbit or human NHE1 were grown as described above.

[3] = system: human melanoma 1205Lu; assay: growth of human melanoma 1205Lu in immunocompromised RAG-1 mice; format: in vivo, RAG-1 mice (human tumor)
From the text: As apparent from FIG. 5, melanoma 1205Lu develops aggressively in RAG-1 mice after implantation.

For `CC(C)[C@@H](CC[C@@H](C)[C@H]1CC[C@H]2[C@@H]3[C@H](O)C[C@H]4C[C@@H](NCCCNCCCCN)CC[C@]4(C)[C@H]3CC[C@]12C)OS(=O)(=O)O` [Squalamine, squalamine], the “inhibition of new blood vessel formation” value ([1]; day 7) was “about 60%”, the “inhibition of new blood vessel formation” value ([1]; day 14) was “about 60%” and the “inhibition of human NHE1” value [2] was “no inhibitory activity”. The “suppression of melanoma 1205Lu growth” value ([3]; 10, 20, 40 mg/kg/d, after tumors reached about 0.1 ml) was “found to suppress the growth of melanoma 1205Lu in RAG-1 mice in a dose-dependent fashion” and the “tumor growth after cessation of treatment” value ([3]; in vivo) was “tumor growth continued at a rate similar to untreated controls”.
